For assay [1], the target named is T1, Constitutive NO synthase (Rattus norvegicus, UniProt Q62600).
T1 construct: The basal tone of the tissue is used as an indication of the activity of the constitutive NO synthase; from tissue; host or cells: rat aortic rings
Nature of the assay: Constitutive NO synthase inhibition (method of Rees et al, Br. J. Pharmacol. 1990; rat aortic rings in vitro, basal tone). The assay is classed as cell-based. The method, then:
The activity of a compound as an inhibitor of the enzyme NO synthase can be determined by an assay in which a macrophage cell line (J774) is induced to express NO synthase with lipopolysaccharide (LPS) and interferon gamma and NO generated is measured by its reaction with haemoglobin or as nitrite. […] Selectivity can be determined by use of an assay based on rat aortic rings in vitro. The basal tone of the tissue is used as an indication of the activity of the constitutive NO synthase whereas LPS-induced loss of tone mediated by NO is used as an indication of the activity of the inducible enzyme in the vascular smooth muscle cells. […] Constitutive NO synthase--method of Rees et al, Br. J. Pharmacol., 101, 746-752 (1990)

Assay [2] addresses T2, Inducible NO synthase (Rattus norvegicus, UniProt Q06518).
T2 construct: activity of the inducible enzyme in the vascular smooth muscle cells; from tissue; host or cells: rat aortic rings, LPS-induced (vascular smooth muscle)
As to the kind of experiment: Inducible NO synthase inhibition (method essentially according to Rees et al, Biochem. Biophys. Res. Comm. 1990; rat aortic rings, LPS-induced loss of tone). It is filed as cell-based. The note with it: for EC50 ratio: constitutive EC50 / inducible EC50. The method, then:
The activity of a compound as an inhibitor of the enzyme NO synthase can be determined by an assay in which a macrophage cell line (J774) is induced to express NO synthase with lipopolysaccharide (LPS) and interferon gamma and NO generated is measured by its reaction with haemoglobin or as nitrite. […] Selectivity can be determined by use of an assay based on rat aortic rings in vitro. The basal tone of the tissue is used as an indication of the activity of the constitutive NO synthase whereas LPS-induced loss of tone mediated by NO is used as an indication of the activity of the inducible enzyme in the vascular smooth muscle cells.
Inducible NO synthase--method essentially according to Rees et al, Biochem. Biophys. Res. Comm., 173, 541-547 (1990).

For assay [3], the system named is constitutive and the inducible NO synthase. Particulars: inhibits both constitutive and inducible NO synthase; cited from earlier work.
[4] abbreviates: inducible NO synthase, read-out: NO Synthase Activity Inducible EC50.

One may read the EC50 as the midpoint of the concentration-response curve.

The structures appear in SMILES notation. Where two headings read alike, the source gives them in different places.

On to `CC(=N)NC/C=C/CC(N)C(=O)O.Cl` (racemic) [Example 3, (±)-E-2-Amino-6-(1-Iminoethylamino)-hex-4-enoic acid hydrochloride], for which the EC50 in assay [1] came to 3.1 µM; in assay [2] (setting [4]), 320 nM. For the same compound, the EC50 ratio in assay [2] came to 9.7.
In the same order, the values of `CC(=N)NCCC[C@H](N)C(=O)O.Cl` [Example 1, (S)-N^5-(1-Iminoethyl)ornithine hydrochloride] are 5.1 µM, 140 nM and 36.4.
In assay [1], `CC(=N)NCCCC[C@H](N)C(=O)O.Cl` [Example 2, (S)-N^6-(1-Iminoethyl) lysine hydrochloride] displayed an EC50 of 6.9 µM. Also, in assay [2], the response was half-maximal at 160 nM (EC50) and the EC50 ratio is recorded as 43.1.
On to `CC(=N)NCCSC[C@@H](N)C(=O)O.Cl` [Example 4, (S)-S-2-(1-Iminoethylamino)ethylcysteine hydrochloride], for which the values for the EC50 in assay [1] and in assay [2] (setting [4]) were 4.3 µM and 130 nM, respectively. In addition, the EC50 ratio in assay [2] was determined as 33.4.
In the case of `CN=C(N)NCCC[C@H](N)C(=O)O` [L-NMMA, L-N-monomethyl-arginine], the “selectivity between constitutive and inducible NO synthase” value in assay [3] is reported as “non-selective”.

The values are drawn from patent US5863931A, “Amidino derivatives and their use as nitric oxide synthase inhibitors” (priority 1991, dated 1999).
